From patent publication US12545900B2, “CGAS/DNCV-like nucleotidyltransferases and uses thereof” (Dana-Farber Cancer Institute, Inc., priority 2018, dated 2026)
Entries after “also recorded” stand apart in the source; their conditions may differ.

Tests used:
RECON [1] = target: T1, RECON (Mus musculus, UniProt Q8VC28); test: RECON enzyme assay (oxidation of NADPH cosubstrate); assay type: biochemical; details: nucleotide 50-0.05 μM
T1 construct: 6xHis-SUMO2 (N, cleaved yes); made in house; host or cells: E. coli BL21 CodonPlus (DE3)-RIL
T1 sequence (Q8VC28 1-323): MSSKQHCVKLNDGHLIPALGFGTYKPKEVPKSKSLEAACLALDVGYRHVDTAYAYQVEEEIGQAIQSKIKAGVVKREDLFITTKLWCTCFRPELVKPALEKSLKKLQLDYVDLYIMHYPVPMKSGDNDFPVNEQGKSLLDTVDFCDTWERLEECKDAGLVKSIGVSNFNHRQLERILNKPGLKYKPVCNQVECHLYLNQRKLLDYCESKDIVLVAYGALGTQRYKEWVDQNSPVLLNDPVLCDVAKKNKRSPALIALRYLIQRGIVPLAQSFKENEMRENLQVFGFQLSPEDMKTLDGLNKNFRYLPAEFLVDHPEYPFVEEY
Description: Activity assays were performed as previously described (McFarland et al. (2017) Immunity 46:433-445). Briefly, a 2-fold dilution series of nucleotide from 50-0.05 μM was incubated in 1×PBS with 200 μM NADPH (cosubstrate) and 25 μM 9,10-Phenanthrenequinone (substrate). The reactions were started with the addition of RECON to a final concentration of 0.5 μM and absorbance at 340 nm was monitored at 20 s intervals for 20 min. Slope of each reaction in the linear range (20-250 s) was used to calculate activity (Linear regression/straight Line analysis, Prism 7.0c). Values were normalized to reactions with zero nucleotide added, which defined 100% activity.

RECON [2] = target: T1, RECON; test: Gel shift assay, radiolabeled nucleotide binding to RECON (native PAGE); details: radiolabeled nucleotide, 0, 4, 20, 100 μM protein
Description: (§1) Briefly, recombinant Mus musculus STING or RECON, at 4, 20, or 100 μM was incubated with radiolabeled nucleotide (≤1 μM final concentration) in gel shift buffer for final conditions of 50 mM Tris pH 7.5, 60 mM KCl, 5 mM Mg (OAc) 2, and 1 mM DTT. Experiments were prepared by combining 1 μL of [α-^32P] labeled nucleotide, 2 uL 5x gel shift buffer, 5 μL of nuclease free water, and started by addition of 2 μL of recombinant protein in storage buffer.
(§2) After 30 min of equilibration, bound and free nucleotide were separated by 6% native PAGE in 0.5x TBE buffer. Gels were dried, and exposed to phosphorscreen prior to detection by Typhoon Trio Variable Mode Imager system (GE Healthcare). Gel shifts were quantified with ImageQuant® 5.2 and the % bound nucleotide was calculated as a proportion of total bound and free nucleotide for each lane, after subtraction of background signal. Gel shift data is representative of ≥2 independent experiments.

Mus musculus STING = target: T2, Mus musculus STING (Mus musculus, UniProt Q3TBT3); test: Gel shift assay, radiolabeled nucleotide binding to STING (native PAGE); details: radiolabeled nucleotide, 0, 4, 20, 100 μM protein
T2 construct: 6xHis-SUMO2 (N, cleaved yes); made in house; host or cells: E. coli BL21 CodonPlus (DE3)-RIL
T2 sequence (Q3TBT3 138-378 limits assumed): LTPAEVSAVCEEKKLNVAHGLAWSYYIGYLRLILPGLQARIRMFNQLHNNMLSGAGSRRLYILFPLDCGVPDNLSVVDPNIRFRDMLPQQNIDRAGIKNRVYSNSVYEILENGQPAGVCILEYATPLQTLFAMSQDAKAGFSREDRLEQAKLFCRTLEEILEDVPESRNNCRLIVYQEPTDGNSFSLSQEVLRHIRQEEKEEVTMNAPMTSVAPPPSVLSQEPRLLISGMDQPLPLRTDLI
Description: as §1, §2

[3] = tested on: interferon-β reporter in HEK293T cells expressing Mus musculus STING; test: Cellular assay for interferon-β induction (in-cell STING reporter assay); details: HEK293T cells transfected with plasmid overexpressing the synthesizing enzyme
CapE = target: T3, CapE (Escherichia coli, UniProt Q6XGD4); test: Phospholipase assay (EnzChek Phospholipase A1), CapE; assay type: biochemical, E. coli; details: 0.1, 1, and 10-fold molar ratios of nucleotide to phospholipase
T3 construct: made in house; host or cells: E. coli BL21 CodonPlus (DE3)-RIL
Description: Patatin-like lipases were assayed as previously described (Gaspar & Machner (2014) Proc. Natl. Acad. Sci. U.S.A. 111:4560-4565). Briefly, CapV and CapE were produced recombinantly and catalytic activity was measured using the EnzChek® Phospholipase A1 Assay Kit (Invitrogen) according to the manufacturer's instructions. […] Assays were monitored fluorometrically Ex=460 nm/Em=515 nm, for 60 min at ˜90 s intervals at room temperature using a Biotek Synergy plate reader. Slope of each reaction in the linear range was used to calculate activity (Linear regression/straight line analysis, Prism 7.0c). A PLA1 standard curve from 20-0.02 U was used to interpolate phospholipase activity. Emission was monitored at a gain of 100 and/or 50 in order to extend the linear range of the assay.

T3 sequence (Q6XGD4 whole entry): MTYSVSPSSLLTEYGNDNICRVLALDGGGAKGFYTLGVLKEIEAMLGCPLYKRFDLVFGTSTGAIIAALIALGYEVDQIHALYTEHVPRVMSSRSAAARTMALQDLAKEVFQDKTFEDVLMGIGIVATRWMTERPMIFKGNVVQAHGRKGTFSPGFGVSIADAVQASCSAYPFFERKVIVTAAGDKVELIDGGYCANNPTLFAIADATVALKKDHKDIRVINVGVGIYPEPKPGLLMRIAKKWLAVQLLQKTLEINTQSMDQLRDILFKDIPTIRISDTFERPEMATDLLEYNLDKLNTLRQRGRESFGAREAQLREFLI

Row | SMILES | inhibition of RECON enzymatic activity (RECON [1]) | recognition/binding of nucleotide by RECON (RECON [2]) | recognition/binding of nucleotide by STING (Mus musculus STING) | activation of STING-dependent type I interferon (IFN-β reporter) [3] | activation of CapE phospholipase activity (CapE)
1 | Nc1nc2c(ncn2[C@@H]2O[C@@H]3COP(=O)(O)O[C@H]4[C@@H](O)[C@H](n5cnc6c(N)ncnc65)O[C@@H]4COP(=O)(O)O[C@H]4[C@@H](O)[C@H](n5cnc6c(N)ncnc65)O[C@@H]4COP(=O)(O)O[C@H]3[C@H]2O)c(=O)[nH]1 [cAAG, 3′3′3′ tricyclic adenosine monophosphate-adenosine monophosphate-guanosine monophosphate] | inhibition of RECON enzymatic activity | detected by RECON | escaped STING recognition | – | –
2 | Nc1ncnc2c1ncn2C1OC2COP(=O)(O)OC3C(COP(=O)(O)OC2C1O)OC(n1ccc(=O)[nH]c1=O)C3O (stereo not shown) [cUMP-AMP, 3′3′ cyclic uridine monophosphate-adenosine monophosphate] | inhibited RECON function, albeit with a reduced potency compared to the previously reported inhibition by c-di-AMP and 3′3′ cGAMP | bound to cUMP-AMP; also recorded: detected by RECON | – | failed to activate STING-dependent type I interferon in cells | CapE as a direct cUMP-AMP receptor
